According to patent publication US20100035871A1, “BENZOXAZINE DERIVATIVES AND USES THEREOF” (priority 2006, published 2010):
Counter-ions that a name gives are not always drawn.

Tested on: not given
Assay: not given
Conditions: not given

| SMILES | melting point |
| --- | --- |
| COc1ccc(-c2cc(F)cc3c2NC(CN)CO3)cc1 (racemic) (as salt: hydrochloride) [Example 61, 1-[7-fluoro-5-(4-methoxyphenyl)-3,4-dihydro-2H-1,4-benzoxazin-3-yl]methanamine] | 72 °C (dec.) |
| NCC1COc2cc(F)cc(-c3ccccc3F)c2N1 (racemic) (as salt: hydrochloride) [Example 62, 1-[7-fluoro-5-(2-fluorophenyl)-3,4-dihydro-2H-1,4-benzoxazin-3-yl]methanamine] | 77 °C (dec.) |
| Cc1cc(Cl)ccc1-c1cc(F)cc2c1NC(CN)CO2 (racemic) (as salt: hydrochloride) [Example 63, 1-[5-(4-chloro-2-methylphenyl)-7-fluoro-3,4-dihydro-2H-1,4-benzoxazin-3-yl]methanamine] | 90 °C (dec.) |
| COc1ccccc1-c1cc(F)cc2c1NC(CN)CO2 (racemic) (as salt: hydrochloride) [Example 64, 1-[7-fluoro-5-(2-methoxyphenyl)-3,4-dihydro-2H-1,4-benzoxazin-3-yl]methanamine] | 84 °C (dec.) |
| NCC1COc2cc(F)cc(-c3cccc(Cl)c3)c2N1 (racemic) (as salt: hydrochloride) [Example 65, 1-[5-(3-chlorophenyl)-7-fluoro-3,4-dihydro-2H-1,4-benzoxazin-3-yl]methanamine] | 76 °C (dec.) |
| CN1CC(CN)Oc2c(-c3cccc(Cl)c3)cccc21 (racemic) (as salt: hydrochloride) [Example 66, 1-[8-(3-chlorophenyl)-4-methyl-3,4-dihydro-2H-1,4-benzoxazin-2-yl]methanamine] | 134 °C (dec.) |

Target: T1, human 5-HT2C receptor (Homo sapiens, UniProt P28335)
T1 construct: expressed in transfected cells; host or cells: CHO (Chinese Hamster Ovary) cells; membrane preparation
T1 sequence (P28335 33-458): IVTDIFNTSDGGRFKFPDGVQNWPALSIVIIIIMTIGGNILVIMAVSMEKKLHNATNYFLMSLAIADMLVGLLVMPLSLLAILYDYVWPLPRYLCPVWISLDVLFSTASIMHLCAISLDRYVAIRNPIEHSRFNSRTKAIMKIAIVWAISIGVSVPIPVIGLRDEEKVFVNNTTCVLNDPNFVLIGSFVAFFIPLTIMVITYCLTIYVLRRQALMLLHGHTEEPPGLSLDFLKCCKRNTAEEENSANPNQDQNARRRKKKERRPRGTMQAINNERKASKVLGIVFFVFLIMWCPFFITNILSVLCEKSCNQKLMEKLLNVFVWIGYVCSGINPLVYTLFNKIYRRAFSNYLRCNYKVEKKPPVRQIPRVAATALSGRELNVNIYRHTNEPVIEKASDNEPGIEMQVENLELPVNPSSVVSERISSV
Assay: 5-HT2C receptor binding, [125I]DOI displacement, membranes of transfected CHO cells
Conditions: @1 μM

| SMILES | 5-HT2C Binding, % @1 μM |
| --- | --- |
| COc1ccc(-c2cccc3c2O[C@H](CN)CN3)cc1 [Example 45, 1-[(2R)-8-(4-methoxyphenyl)-3,4-dihydro-2H-1,4-benzoxazin-2-yl]methanamine] | 18% @1 μM |

Same assay, conditions: read-out: 5-HT2C Binding Ki avg

| SMILES | Ki |
| --- | --- |
| CN1CC(CN)Oc2c(-c3ccccc3)cccc21 (racemic) [Example 9, 1-(4-Methyl-8-phenyl-3,4-dihydro-2H-1,4-benzoxazin-2-yl)methanamine] | 161 nM |
| CCN1CC(CN)Oc2c(-c3ccccc3Cl)cccc21 (racemic) [Example 19, 1-[8-(2-Chlorophenyl)-4-ethyl-3,4-dihydro-2H-1,4-benzoxazin-2-yl]methanamine] | 80.5 nM |
| CCCN1CC(CN)Oc2c(-c3ccccc3Cl)cccc21 (racemic) [Example 21, 1-[8-(2-Chlorophenyl)-4-propyl-3,4-dihydro-2H-1,4-benzoxazin-2-yl]methanamine] | 64 nM |
| NCC1COc2cc(Cl)cc(-c3ccccc3C(F)(F)F)c2N1 (racemic) [Example 25, 1-{7-Chloro-5-[2-(trifluoromethyl)phenyl]-3,4-dihydro-2H-1,4-benzoxazin-3-yl}methanamine] | 68.2 nM |
| COc1ccc(-c2cc(Cl)cc3c2NC(CN)CO3)cc1 (racemic) [Example 26, 1-[7-Chloro-5-(4-methoxyphenyl)-3,4-dihydro-2H-1,4-benzoxazin-3-yl]methanamine] | 158 nM |
| COc1ccc(-c2cc(Cl)cc3c2N(C)C(CN)CO3)c(C)c1 (racemic) [Example 28, 1-[7-chloro-5-(4-methoxy-2-methylphenyl)-4-methyl-3,4-dihydro-2H-1,4-benzoxazin-3-yl]methanamine] | 1120 nM |
| NCC1COc2cc(Cl)cc(-c3ccccc3)c2N1 (racemic) [Example 29, 1-(7-chloro-5-phenyl-3,4-dihydro-2H-1,4-benzoxazin-3-yl)methanamine] | 421 nM |
| Cc1ccccc1-c1cc(Cl)cc2c1NC(CN)CO2 (racemic) [Example 30, 1-[7-chloro-5-(2-methylphenyl)-3,4-dihydro-2H-1,4-benzoxazin-3-yl]methanamine] | 155 nM |
| NCC1COc2cc(Cl)cc(-c3ccccc3F)c2N1 (racemic) [Example 33, 1-[7-chloro-5-(2-fluorophenyl)-3,4-dihydro-2H-1,4-benzoxazin-3-yl]methanamine] | 152 nM |
| COc1ccccc1-c1cc(Cl)cc2c1NC(CN)CO2 (racemic) [Example 34, 1-[7-chloro-5-(2-methoxyphenyl)-3,4-dihydro-2H-1,4-benzoxazin-3-yl]methanamine] | 749 nM |
| Cc1cc(Cl)ccc1-c1cc(Cl)cc2c1NC(CN)CO2 (racemic) [Example 35, 1-[7-chloro-5-(4-chloro-2-methylphenyl)-3,4-dihydro-2H-1,4-benzoxazin-3-yl]methanamine] | 173 nM |
| NCC1COc2cc(Cl)cc(-c3ccc(Cl)cc3C(F)(F)F)c2N1 (racemic) [Example 37, 1-{7-chloro-5-[4-chloro-2-(trifluoromethyl)phenyl]-3,4-dihydro-2H-1,4-benzoxazin-3-yl}methanamine] | 166 nM |
| NCC1COc2cc(Cl)cc(-c3ccc(C(F)(F)F)cc3C(F)(F)F)c2N1 (racemic) [Example 38, 1-{5-[2,4-bis(trifluoromethyl)phenyl]-7-chloro-3,4-dihydro-2H-1,4-benzoxazin-3-yl}methanamine] | 287 nM |
| COc1ccc(-c2cc(F)cc3c2NC(CN)CO3)c(C)c1 (racemic) [Example 56, 1-[7-fluoro-5-(4-methoxy-2-methylphenyl)-3,4-dihydro-2H-1,4-benzoxazin-3-yl]methanamine] | 160 nM |
| NCC1COc2cc(F)cc(-c3ccccc3Cl)c2N1 (racemic) [Example 57, 1-[5-(2-chlorophenyl)-7-fluoro-3,4-dihydro-2H-1,4-benzoxazin-3-yl]methanamine] | 155 nM |
| Cc1ccccc1-c1cc(F)cc2c1NC(CN)CO2 (racemic) [Example 58, 1-[7-fluoro-5-(2-methylphenyl)-3,4-dihydro-2H-1,4-benzoxazin-3-yl]methanamine] | 155 nM |
| Cc1ccc(-c2cc(F)cc3c2NC(CN)CO3)c(C(F)(F)F)c1 (racemic) [Example 60, 1-{7-fluoro-5-[4-methyl-2-(trifluoromethyl)phenyl]-3,4-dihydro-2H-1,4-benzoxazin-3-yl}methanamine] | 65.1 nM |
| COc1ccc(-c2cc(F)cc3c2NC(CN)CO3)cc1 (racemic) [Example 61, 1-[7-fluoro-5-(4-methoxyphenyl)-3,4-dihydro-2H-1,4-benzoxazin-3-yl]methanamine] | 380 nM |
| NCC1COc2cc(F)cc(-c3ccccc3F)c2N1 (racemic) [Example 62, 1-[7-fluoro-5-(2-fluorophenyl)-3,4-dihydro-2H-1,4-benzoxazin-3-yl]methanamine] | 794 nM |
| Cc1cc(Cl)ccc1-c1cc(F)cc2c1NC(CN)CO2 (racemic) [Example 63, 1-[5-(4-chloro-2-methylphenyl)-7-fluoro-3,4-dihydro-2H-1,4-benzoxazin-3-yl]methanamine] | 227 nM |
| COc1ccccc1-c1cc(F)cc2c1NC(CN)CO2 (racemic) [Example 64, 1-[7-fluoro-5-(2-methoxyphenyl)-3,4-dihydro-2H-1,4-benzoxazin-3-yl]methanamine] | 291 nM |
| NCC1COc2cc(F)cc(-c3cccc(Cl)c3)c2N1 (racemic) [Example 65, 1-[5-(3-chlorophenyl)-7-fluoro-3,4-dihydro-2H-1,4-benzoxazin-3-yl]methanamine] | 497 nM |
| CN1CC(CN)Oc2c(-c3cccc(Cl)c3)cccc21 (racemic) [Example 66, 1-[8-(3-chlorophenyl)-4-methyl-3,4-dihydro-2H-1,4-benzoxazin-2-yl]methanamine] | 258 nM |
| Cc1cc(Cl)ccc1-c1cccc2c1O[C@H](CN)CN2 [Example 42, 1-[(2R)-8-(4-chloro-2-methylphenyl)-3,4-dihydro-2H-1,4-benzoxazin-2-yl]methanamine] | 529 nM |
| NC[C@@H]1CNc2cccc(-c3ccccc3F)c2O1 [Example 43, 1-[(2R)-8-(2-fluorophenyl)-3,4-dihydro-2H-1,4-benzoxazin-2-yl]methanamine] | 96.7 nM |
| COc1ccc(-c2cccc3c2O[C@H](CN)CN3)c(C)c1 [Example 44, 1-[(2R)-8-(4-methoxy-2-methylphenyl)-3,4-dihydro-2H-1,4-benzoxazin-2-yl]methanamine] | 143 nM |
| COc1ccc(-c2cccc3c2O[C@H](CN)CN3)c(Cl)c1 [Example 46, 1-[(2R)-8-(2-chloro-4-methoxyphenyl)-3,4-dihydro-2H-1,4-benzoxazin-2-yl]methanamine] | 131 nM |
| Cc1cc(Cl)ccc1-c1cccc2c1O[C@@H](CN)CN2 [Example 48, 1-[(2S)-8-(4-chloro-2-methylphenyl)-3,4-dihydro-2H-1,4-benzoxazin-2-yl]methanamine] | 99.3 nM |
| NC[C@H]1CNc2cccc(-c3ccccc3F)c2O1 [Example 49, 1-[(2S)-8-(2-fluorophenyl)-3,4-dihydro-2H-1,4-benzoxazin-2-yl]methanamine] | 143 nM |
| COc1ccc(-c2cccc3c2O[C@@H](CN)CN3)cc1 [Example 51, 1-[(2S)-8-(4-methoxyphenyl)-3,4-dihydro-2H-1,4-benzoxazin-2-yl]methanamine] | 136 nM |

Same assay, conditions: reference compounds; value (95% confidence interval); [125I]DOI binding; read-out: Ki

| SMILES | Ki |
| --- | --- |
| CSc1ccc2c(c1)C(N1CCN(C)CC1)Cc1ccccc1S2 (stereo not drawn) [Methiothepin, reference compound] | 4.6 nM |

Same assay, conditions: saturation binding with increasing concentrations of [125I] DOI; read-out: dissociation constant, KD

| SMILES | Kd |
| --- | --- |
| COc1cc(CC(C)N)c(OC)cc1I (stereo not drawn) [[^125I] DOI, reference compound] | 0.4 nM |
